Results published in patent publication US12433877B2, “Sustained release drug delivery systems and related methods” (Durect Corporation, priority 2021, dated 2025).
Structures can show the parent of a compound that is named as a salt.

Legend:
[1] = human, in vivo
[2] = test system: patients undergoing a variety of general surgical procedures; assay: Example 18: general surgical procedures (laparotomy, laparoscopic cholecystectomy, colectomy), pain and opioid use; assay type: in vivo, human; settings: ITT; for Repeated Measures Pain Intensity on Movement 0-72 Hours, LS Mean: All Timepoints 0-72 hr, LogPad scores only
[3] = test system: subjects undergoing elective outpatient laparoscopic cholecystectomy; assay: Example 17: laparoscopic cholecystectomy study, safety (surgical site and CNS-related adverse reactions, TEAEs); assay type: in vivo; settings: for Fatal TEAE: Part 2
Procedure: In two studies in patients undergoing laparoscopic cholecystectomy, Formulation A or bupivacaine HCl was administered into the laparoscopic port incisions at the end of surgery. In one of these studies, a subset of patients received either Formulation A or saline placebo. In a study of patients undergoing laparoscopically-assisted colectomy, Formulation A or vehicle placebo was administered predominantly into the hand port incision at the end of surgery. In a study of patients undergoing laparotomy, Formulation A or bupivacaine HCl was administered into the full length of the surgical incision at the end of surgery. Table 4.7 and Table 4.8 present, respectively, surgical-site adverse reactions and early-occurring central nervous system (CNS)-related adverse reactions from the laparoscopic cholecystectomy study that included a saline placebo control arm.
The trial included: 1) a randomized, parallel-group, double-blind, placebo-controlled study (Part 1) and a randomized, parallel-group, double-blind, bupivacaine HCl active-controlled study (Part 2). The trial evaluated the efficacy and safety of Formulation A (bupivacaine, benzyl alcohol, sucrose acetate isobutyrate) as a delivery system in subjects undergoing elective outpatient laparoscopic cholecystectomy.
The study was conducted as 2 separate parts (Part 1 and Part 2).
The fascia was closed, as required, prior to instillation of Formulation A. Formulation A was instilled into the incisions via a blunt-tipped syringe-tip applicator just prior to skin closure. After administration, the skin was closed in standard fashion with subcuticular sutures and cyanoacrylate skin adhesive or Steri-Strips™.
In Part 1, subjects randomized to saline-placebo were administered sterile normal saline 5 mL (0.9% sodium chloride injection, USP) by direct instillation into the surgical incisions. The 5 mL of placebo was divided between the 4 ports according to a protocol-specified dosing schedule, to provide coverage of all surgical incisions. The fascia was closed, as required, prior to instillation of the placebo composition. The placebo composition was instilled into the incisions via a blunt-tipped syringe-tip applicator just prior to skin closure. After administration, the skin was closed in standard fashion with subcuticular sutures and cyanoacrylate skin adhesive or Steri-Strips™.
In Part 2, subjects randomized to active control were administered bupivacaine HCl 0.5% 15 mL (75 mg; without epinephrine) by infiltration into the margins of the surgical incisions with a 22 gauge needle. The 15 mL of bupivacaine HCl composition was divided between the 4 ports according to a protocol-specified dosing schedule, to provide coverage of all surgical incisions. The fascia was closed, as required, prior to administration of the bupivacaine HCl active control composition. After infiltration, the skin was closed in standard fashion with subcuticular sutures and cyanoacrylate skin adhesive or Steri-Strips™
There were no fatalities in this trial. […]

[4] = test system: patients undergoing elective arthroscopic shoulder surgery; assay: Example 1 / Study 1: pain intensity and opioid rescue after arthroscopic shoulder surgery; assay type: in vivo, human; settings: ITT, HCl
[5] = test system: patients, abdominal surgeries; assay: Adverse reactions pooled from laparoscopic, laparoscopically-assisted and open abdominal surgery studies; assay type: in vivo, human; settings: adjusted percentage
pregnant rabbits = assay: Embryo-fetal development study, subcutaneous, rabbits; assay type: in vivo
Procedure: There are no studies conducted with Formulation A in pregnant women. […] Based on animal data, advise pregnant women of the potential risks to a fetus. [see Data]
Bupivacaine hydrochloride was administered subcutaneously to rats at doses of 4.4, 13.3, & 40 mg/kg and to rabbits at doses of 1.3, 5.8, & 22.2 mg/kg during the period of organogenesis (implantation to closure of the hard palate). The high doses are approximately 0.6 times the daily maximum recommended human dose (MRHD) of 660 mg/day on a mg/m^2 body surface area (BSA) basis.

With `CCCCN1CCCCC1C(=O)Nc1c(C)cccc1C` (stereo not drawn) [Bupivacaine HCl] the “Cmax (min, max), free bupivacaine” value [1] was “(0.3, 10.1) ng/mL”, the “Repeated Measures Pain Intensity on Movement 0-72 Hours, LS Mean” value ([2]; Cohort 1 (Laparotomy)) was 5.9 and the “Total Morphine-equivalent Opioid Medication Use, MEDD 0-72 hours, Median” value ([2]; Cohort 1 (Laparotomy)) was 63.0 mg. The “Repeated Measures Pain Intensity on Movement 0-72 Hours, LS Mean” value ([2]; Cohort 2 (Laparoscopic Cholecystectomy)) was 3.6, the “Fatal TEAE” value ([3]; % of subjects) was “(0.0%)” and the “Fatal TEAE” value ([3]; number of subjects) was 0. For the same compound, the “Surgical site: Drainage from surgical incision(s)” value ([3]; human, in vivo) was “(4.1%)”, the “Surgical site: Surgical site bleeding” value ([3]; human, in vivo) was “(16.2%)” and the “Surgical site: Surgical site infection” value ([3]; human, in vivo) was “(0.7%)”. For the same compound, the “Surgical site: Visible bruising” value ([3]; human, in vivo) was “(70.9%)”, the “Surgical site: Wound dehiscence” value ([3]; human, in vivo) was “(2.0%)” and the “Surgical site: Wound hematoma” value ([3]; human, in vivo) was “(1.4%)”. For the same compound, the “Treated subjects with treatment-emergent serious adverse events” value ([3]; human, in vivo) was 3 subjects, the “Constipation (Constipation), (%)” value ([3]; human, in vivo, 6 h) was “(6.8%)” and the “Dizziness (Dizziness), (%)” value ([3]; human, in vivo, 6 h) was “(20.9%)”. For the same compound, the “Dysgeusia (Metallic taste in mouth), (%)” value ([3]; human, in vivo, 6 h) was “(14.9%)”, the “Headache (Headache), (%)” value ([3]; human, in vivo, 6 h) was “(12.2%)” and the “Hypoesthesia (Numbness), (%)” value ([3]; human, in vivo, 6 h) was “(0.7%)”. For the same compound, the “Nausea (Nausea), (%)” value ([3]; human, in vivo, 6 h) was “(38.5%)”, the “Paresthesia (Tingling), (%)” value ([3]; human, in vivo, 6 h) was “(4.1%)” and the “Pruritus (Itching), (%)” value ([3]; human, in vivo, 6 h) was “(3.4%)”. For the same compound, the “Somnolence (Drowsiness), (%)” value ([3]; human, in vivo, 6 h) was “(32.4%)”, the “Vomiting (Vomiting), (%)” value ([3]; human, in vivo, 6 h) was “(10.1%)” and the “Total IV morphine equivalent dose of opioid rescue medication, median” value ([4]; 0-72 hours after surgery) was 8.0 mg. The “Time to first use of opioid rescue medication, median (95% CI)” value ([4]; Kaplan-Meier) was 1.4 (1.0, 4.1) hours, the “Adverse reaction: Abdominal distension” value [5] was “(4.8%)” and the “Adverse reaction: Abdominal pain” value [5] was “(0.5%)”. The “Adverse reaction: Abdominal pain upper” value [5] was “(1.0%)”, the “Adverse reaction: Anemia” value [5] was “(0.7%)” and the “Adverse reaction: Body temperature increased” value [5] was 0%. For the same compound, the “Adverse reaction: Chest pain” value [5] was “(0.5%)”, the “Adverse reaction: Constipation” value [5] was “(41.8%)” and the “Adverse reaction: Cough” value [5] was “(1.8%)”. For the same compound, the “Adverse reaction: Diarrhea” value [5] was “(5.5%)”, the “Adverse reaction: Dizziness” value [5] was “(30.1%)” and the “Adverse reaction: Dry mouth” value [5] was “(1.0%)”. For the same compound, the “Adverse reaction: Dysgeusia” value [5] was “(16.9%)”, the “Adverse reaction: Dyspepsia” value [5] was “(1.9%)” and the “Adverse reaction: Flatulence” value [5] was “(4.0%)”. For the same compound, the “Adverse reaction: Headache” value [5] was “(32.3%)”, the “Adverse reaction: Hypertension” value [5] was “(3.6%)” and the “Adverse reaction: Hypokalemia” value [5] was “(1.4%)”. The “Adverse reaction: Ileus” value [5] was “(0.7%)”, the “Adverse reaction: Incision site erythema” value [5] was “(2.7%)” and the “Adverse reaction: Incision site hematoma” value [5] was “(1.7%)”. For the same compound, the “Adverse reaction: Incision site hemorrhage” value [5] was “(3.0%)”, the “Adverse reaction: Incision site infection” value [5] was “(2.5%)” and the “Adverse reaction: Insomnia” value [5] was “(2.9%)”. For the same compound, the “Adverse reaction: Musculoskeletal pain” value [5] was “(4.9%)”, the “Adverse reaction: Nasopharyngitis” value [5] was 0% and the “Adverse reaction: Nausea” value [5] was “(59.6%)”. For the same compound, the “Adverse reaction: Oropharyngeal pain” value [5] was “(1.0%)”, the “Adverse reaction: Pain in extremity” value [5] was “(2.8%)” and the “Adverse reaction: Paresthesia” value [5] was “(13.1%)”. The “Adverse reaction: Post procedural contusion (bruising)” value [5] was “(61.8%)”, the “Adverse reaction: Post procedural discharge” value [5] was “(4.4%)” and the “Adverse reaction: Procedural pain” value [5] was “(17.8%)”. The “Adverse reaction: Pruritus” value [5] was “(18.7%)”, the “Adverse reaction: Pyrexia” value [5] was “(5.7%)” and the “Adverse reaction: Rash” value [5] was “(3.8%)”. The “Adverse reaction: Somnolence” value [5] was “(41.0%)”, the “Adverse reaction: Urinary retention” value [5] was “(1.2%)” and the “Adverse reaction: Vomiting” value [5] was “(21.0%)”. The “Adverse reaction: Wound dehiscence” value [5] was “(1.5%)”, the “Embryo-fetal deaths at the high dose” value (pregnant rabbits; 22.2 mg/kg subcutaneous, organogenesis, rabbits) was “An increase in embryo-fetal deaths was observed” and the “Fetal No Observed Adverse Effect Level” value (pregnant rabbits; female, rabbit, in vivo) was “approximately 0.2 times the MRHD”.
